# Data from US7776883B2, “Quinolin-4-ones as inhibitors of retroviral integrase for the treatment of HIV, AIDS and AIDS related complex (ARC)” (The United States of America as represented by the …, priority 2004, dated 2010).
row,SMILES,melting point [°C]
1,"CCOC(=O)C(=O)CC(=O)c1cn(Cc2ccc3ccccc3n2)c2ccccc2c1=O [RDS1999, 4-[1-(2-Quinolinyl)methyl-1,4-dihydro-4-oxoquinolin-3-yl]-2,4-dioxobutanoic acid ethyl ester]",237 to 238
2,"CCOC(=O)C(=O)CC(=O)c1cn(Cc2ccc(OC)cc2)c2ccccc2c1=O [RDS2034, 4-[1-(4-Methoxyphenyl)methyl-1,4-dihydro-4-oxoquinolin-3-yl]-2,4-dioxobutanoic acid ethyl ester]",154 to 156
3,"O=C(O)C(=O)CC(=O)c1c[nH]c2ccccc2c1=O [RDS1680, 4-(1,4-dihydro-4-oxoquinolin-3-yl)-2,4-dioxobutanoic acid]",> 290
4,"O=C(O)C(=O)CC(=O)c1cn(Cc2ccc3ccccc3n2)c2ccccc2c1=O [RDS2000, 4-[1-(2-Quinolinyl)methyl-1,4-dihydro-4-oxoquinolin-3-yl]-2,4-dioxobutanoic acid]",> 300
5,"CCOC(=O)C(=O)CC(=O)c1cn(Cc2ccccc2F)c2ccccc2c1=O [RDS1989, 4-[1-(2-Fluorophenyl)methyl-1,4-dihydro-4-oxoquinolin-3-yl]-2,4-dioxobutanoic acid ethyl ester]",152 to 153
6,"CCOC(=O)C(=O)CC(=O)c1cn(CCCCc2ccccc2)c2ccccc2c1=O [RDS1980, 4-[1-(4-Phenylbutyl)-1,4-dihydro-4-oxoquinolin-3-yl]-2,4-dioxobutanoic acid ethyl ester]",88 to 90
7,"CCOC(=O)C(=O)CC(=O)c1cn(Cc2ccc(Cl)cc2)c2ccccc2c1=O [RDS2011, 4-[1-(4-Chlorophenyl)methyl-1,4-dihydro-4-oxoquinolin-3-yl]-2,4-dioxobutanoic acid ethyl ester]",174 to 176
8,"O=C(O)C(=O)CC(=O)c1cn(CCCCc2ccccc2)c2ccccc2c1=O [RDS1981, 4-[1-(4-Phenylbutyl)-1,4-dihydro-4-oxoquinolin-3-yl]-2,4-dioxobutanoic acid]",136 to 138
9,"CCOC(=O)C(=O)CC(=O)c1cn(Cc2c(F)cccc2F)c2ccccc2c1=O [RDS1983, 4-[1-(2,6-Difluorophenyl)methyl-1,4-dihydro-4-oxoquinolin-3-yl]-2,4-dioxobutanoic acid ethyl ester]",172 to 173
10,COc1ccccc1Cn1cc(C(=O)CC(=O)C(=O)O)c(=O)c2ccccc21,173 to 175
11,"CCOC(=O)C(=O)CC(=O)c1cn(Cc2ccc3ccccc3c2)c2ccccc2c1=O [RDS1974, 4-[α-(2-Naphthyl)methyl-1,4-dihydro-4-oxoquinolin-3-yl]-2,4-dioxobutanoic acid ethyl ester]",153 to 154
12,CCOC(=O)C(=O)CC(=O)c1cn(Cc2ccccc2OC)c2ccccc2c1=O,154 to 156
13,CCOC(=O)C(=O)CC(=O)c1cn(Cc2ccc(O)cc2)c2ccccc2c1=O,179 to 181
14,"CCOC(=O)C(=O)CC(=O)c1cn(Cc2cccc(F)c2)c2ccccc2c1=O [RDS1986, 4-[1-(3-Fluorophenyl)methyl-1,4-dihydro-4-oxoquinolin-3-yl]-2,4-dioxobutanoic acid ethyl ester]",174 to 175
15,CCOC(=O)C(=O)CC(=O)c1cn(Cc2ccccc2F)c2cc(Cl)ccc2c1=O,173 to 175
16,"CCOC(=O)C(=O)CC(=O)c1c[nH]c2ccccc2c1=O [RDS1675, 4-(1,4-dihydro-4-oxoquinolin-3-yl)-2,4-dioxobutanoic acid ethyl ester]",235 to 237
17,CCOC(=O)C(=O)CC(=O)c1cn(Cc2ccc(F)cc2)c2cc(Cl)c(Cl)cc2c1=O,144 to 145
18,COc1cccc(Cn2cc(C(=O)CC(=O)C(=O)O)c(=O)c3ccccc32)c1,179 to 181
19,O=C(O)CCc1cn(Cc2ccc(F)cc2)c2ccc(C(=O)CC(=O)C(=O)O)cc2c1=O,184 to 187
20,CCOC(=O)C(=O)CC(=O)c1ccc2c(c1)c(=O)c(CCC(=O)O)cn2Cc1ccc(F)cc1,177 to 180
21,CCOC(=O)C(=O)CC(=O)c1cn(Cc2cccc(OC)c2)c2ccccc2c1=O,177 to 179
22,"CCOC(=O)C(=O)CC(=O)c1cn(Cc2ccc([N+](=O)[O-])cc2)c2ccccc2c1=O [RDS2017, 4-[1-(4-Nitrophenyl)methyl-1,4-dihydro-4-oxoquinolin-3-yl]-2,4-dioxobutanoic acid ethyl ester]",175 to 176
23,"CCOC(=O)C(=O)CC(=O)c1cn(Cc2ccccc2)c2ccccc2c1=O [RDS1992, 4-(1-Phenylmethyl-1,4-dihydro-4-oxoquinolin-3-yl)-2,4-dioxobutanoic acid ethyl ester]",141 to 142

# Results, then the molecule that gave them:
row,melting point [°C],SMILES
1,141 to 142,"O=C(O)C(=O)CC(=O)c1cn(Cc2ccccc2)c2ccccc2c1=O [RDS1993, 4-(1-Phenylmethyl-1,4-dihydro-4-oxoquinolin-3-yl)-2,4-dioxobutanoic acid]"
2,151 to 152,"CCOC(=O)C(=O)CC(=O)c1cn(Cc2ccc(F)cc2)c2cc(F)ccc2c1=O [RDS2021, 4-[1-(4-Fluorophenyl)methyl-7-fluoro-1,4-dihydro-4-oxoquinolin-3-yl]-2,4-dioxobutanoic acid ethyl ester]"
3,149 to 150,"COc1ccc(Cn2cc(C(=O)CC(=O)C(=O)O)c(=O)c3ccccc32)cc1 [RDS2035, 4-[1-(4-Methoxyphenyl)methyl-1,4-dihydro-4-oxoquinolin-3-yl]-2,4-dioxobutanoic acid]"
4,179 to 180,CCOC(=O)C(=O)CC(=O)c1cn(Cc2ccc(F)cc2)c2c(F)cccc2c1=O
5,187 to 189,O=C(O)C(=O)CC(=O)c1cn(Cc2ccccc2F)c2cc(Cl)ccc2c1=O
6,177 to 179,"O=C(O)C(=O)CC(=O)c1cn(Cc2ccc(Cl)cc2)c2ccccc2c1=O [RDS2012, 4-[1-(4-Chlorophenyl)methyl-1,4-dihydro-4-oxoquinolin-3-yl]-2,4-dioxobutanoic acid]"
7,175 to 177,O=C(O)C(=O)CC(=O)c1cn(Cc2ccc(F)cc2)c2c(Cl)cccc2c1=O
8,172 to 174,"O=C(O)C(=O)CC(=O)c1cn(Cc2ccccc2F)c2ccccc2c1=O [RDS1990, 4-[1-(2-Fluorophenyl)methyl-1,4-dihydro-4-oxoquinolin-3-yl]-2,4-dioxobutanoic acid]"
9,162 to 163,"O=C(O)C(=O)CC(=O)c1cn(Cc2ccc(F)cc2)c2cc(F)ccc2c1=O [RDS2022, 4-[1-(4-Fluorophenyl)methyl-7-fluoro-1,4-dihydro-4-oxoquinolin-3-yl]-2,4-dioxobutanoic acid]"
10,164 to 165,CCOC(=O)C(=O)CC(=O)c1cn(Cc2ccc(F)cc2)c2c(Cl)cccc2c1=O
11,212 to 213,"O=C(O)C(=O)CC(=O)c1cn(Cc2ccc3ccccc3c2)c2ccccc2c1=O [RDS1975, 4-[1-(2-Naphthyl)methyl-1,4-dihydro-4-oxoquinolin-3-yl]-2,4-dioxobutanoic acid]"
12,171 to 172,"O=C(O)C(=O)CC(=O)c1cn(Cc2c(F)cccc2F)c2ccccc2c1=O [RDS1984, 4-[1-(2,6-Difluorophenyl)methyl-1,4-dihydro-4-oxoquinolin-3-yl]-2,4-dioxobutanoic acid]"
13,175 to 177,O=C(O)C(=O)CC(=O)c1cn(Cc2ccc(F)cc2)c2cc(Cl)c(Cl)cc2c1=O
14,230 to 232,"O=C(O)C(=O)CC(=O)c1cn(Cc2ccc([N+](=O)[O-])cc2)c2ccccc2c1=O [RDS2018, 4-[1-(4-Nitrophenyl)methyl-1,4-dihydro-4-oxoquinolin-3-yl]-2,4-dioxobutanoic acid]"
15,152 to 153,"CCOC(=O)C(=O)CC(=O)c1cn(Cc2ccc(F)cc2)c2ccc(F)cc2c1=O [RDS2077, 4-[1-(4-Fluorophenyl)methyl-6-fluoro-1,4-dihydro-4-oxoquinolin-3-yl]-2,4-dioxobutanoic acid ethyl ester]"
16,180 to 181,O=C(O)C(=O)CC(=O)c1cn(Cc2ccc(F)cc2)c2c(F)cccc2c1=O
17,183 to 184,"O=C(O)C(=O)CC(=O)c1cn(Cc2ccc(F)cc2)c2ccc(F)cc2c1=O [RDS2078, 4-[1-(4-Fluorophenyl)methyl-6-fluoro-1,4-dihydro-4-oxoquinolin-3-yl]-2,4-dioxobutanoic acid]"
18,206 to 208,O=C(O)C(=O)CC(=O)c1cn(Cc2ccc(O)cc2)c2ccccc2c1=O
19,158 to 159,"O=C(O)C(=O)CC(=O)c1cn(Cc2cccc(F)c2)c2ccccc2c1=O [RDS1987, 4-[1-(3-Fluorophenyl)methyl-1,4-dihydro-4-oxoquinolin-3-yl]-2,4-dioxobutanoic acid]"
20,197 to 199,O=C(O)C(=O)CC(=O)c1cn(Cc2ccc(F)cc2)c2cc(N3CCCC3)ccc2c1=O
